Measurements taken from patent US12048734B2, “Bioactive peptides and methods of use thereof” (OP-T LLC, priority 2020, dated 2024).

Experiments:
[1] = NDA 022150; cited from earlier work
[2] = Single dose dog study focused on cardiovascular effects, 30-minute IV infusion; assay type: in vivo, dogs
Procedure: Since some of the clinical signs were consistent with a drop in blood pressure, a single dose dog study was done, giving doses of 0.3, 1 or 100 mg/kg by a 30-minute IV infusion, and focused on cardiovascular effects. […] The 100 mg/kg group had much more severe clinical observations compared to 1 mg/kg. These effects were associated with decreases in blood pressure and heart rate for the dogs treated with 100 mg/kg. The blood pressure and heart rate returned to normal by 1 hour after end of infusion.

[3] = Preliminary toxicity study, single IV bolus, beagle dogs; assay type: in vivo
Procedure: (§1) In a preliminary toxicity study rats and dogs were given a single dose of OPT 101 as an IV bolus. […] When OPT101 was administered to beagle dogs at 50 or 100 mg/kg by bolus IV injection OPT101 was not tolerated due to adverse clinical signs, including prostration, slight salivation, decreased activities, purple or red skin colored in the abdomen ventral, lateral ears or conjunctiva(s), lips, or periorbital, soft stool, medium food-like, red/brown, or small and frothy vomitus, increased respiratory rate, and labored breathing. Clinical pathology effects included increases in leukocyte count, erythrocyte and platelet counts.

[4] = Preliminary toxicity study, single IV bolus, rats; assay type: in vivo; conditions: 50 or 100 mg/kg bolus IV injection
Procedure: as §1

bacterial mutation = test: Standard reverse bacterial mutation assay (Ames assay)
Excerpt: OPT101 was negative in the standard reverse bacterial mutation assay (Ames assay).

[5] = Single bolus IV dose histamine / immune mediator study in rats
[6] = 8-week GLP repeat-dose toxicity study, 30-minute IV infusion, dogs; assay type: in vivo
Procedure: Rats and dogs were treated once a week for 8-weeks, by 30-minute IV infusions. The PK of OPT101 was also determined following the first and last dose in each study.

human platelets = test: Human platelet aggregation in vitro by light transmission aggregometry; assay type: cell-based
Excerpt: It has been shown that using an anti-CD154 monoclonal therapeutic approach to interfere with the CD40-CD154 interaction there was efficacy in animal models, but in the clinical trial of one of the monoclonal antibodies there was binding to platelets resulting in emboli. Therefore, the clinical trials were halted (Kawai et al 2000, abstract). To determine if OPT101 has similar effects as the monoclonal antibody, an in vitro study was done with human platelets to determine if OPT101 would affect platelet aggregation, as measured by light transmission aggregometry. Platelet aggregation induced with adenosine diphosphate or collagen were not affected when treated with OPT101 at 0.1, 0.3, 3 or 30 μg/mL. […] Therefore, OPT101 had no impact on human platelet aggregation in vitro.

[7] = 8-week GLP repeat-dose toxicity study, 30-minute IV infusion, rats; assay type: in vivo
Procedure: Due to these adverse effects in the rats and dogs after a bolus IV injection, the administration of OPT101 was changed to IV infusion over 30 minutes for the definitive GLP toxicity studies. Rats and dogs were treated once a week for 8-weeks, by 30-minute IV infusions. The PK of OPT101 was also determined following the first and last dose in each study. […] The no observable adverse effect level (NOAEL) for OPT101 was considered to be the […] level. […] Due to the incidence and severity of the infusion reactions, the clinical signs were considered adverse at 100 and 400 mg/kg, but because of the lower incidence and severity at 10 mg/kg, the effects at the 10 mg/kg were considered non-adverse.

[8] = Character of infusion reactions in the animal studies; assay type: in vivo
Excerpt: There was clear difference between the infusion reactions seen in the rats and dogs, and IgE-mediated anaphylaxis or other antigen-dependent hypersensitivity. IgE/antigen-dependent degranulation of mast cells is associated with a sustained release of larger and more heterogeneously shaped granule structures, whereas peptide-activated mast cells rapidly secrete small and relatively spherical granule structures (Gaudenzio 2016). […] In addition, the infusion reactions were also elicited by a scrambled version of OPT101 (same amino acids but in a different sequence), showing the reaction was not OPT101-dependent.

Th40 cells = test: Intracellular TGF in Th40 cells from ApoE−/− mice treated with KGYY6; conditions: ApoE−/− mice with cardiovascular disease treated with KGYY6 vs not treated; ex-vivo flow cytometry
Procedure: Th40 cells were purified from ApoE−/−mice with cardiovascular disease as well as from ApoE−/−mice that were treated with KGYY6. Immediately ex-vivo, the cells were stained for CD3, CD4, and CD40 and intracellular TGF and analyzed by flow cytometry. Cells were gated on CD3 then CD4 and CD40 for Th40 cells then levels of TGF were assessed.

conventional CD4 T cells = test: Intracellular IL-10 in conventional CD4 T cells ex-vivo at end of EAE experiment after KGYY6 treatment; parameters: species or system mice; conditions: draining lymph nodes (dLN); after 33 days; vs untreated animals; p=0.0145
Excerpt: FIG. 10 provides two graphs which show how KGYY-6 treatment alters IL-10 production by conventional CD4 T cells.
Intracellular cytokine expression profiles were examined in conventional CD4 T cells immediately ex-vivo at the end of the EAE experiment, after 33 days.

[9] = test system: CD3+CD4+CD40+(Th40) splenic cells; test: Overnight culture of Th40 splenic cells with KGYY6, inflammatory cytokines; assay type: cell-based, ApoE−/− mice; conditions: cultured overnight with varying concentrations of KGYY6; vs untreated cells
Procedure: CD3+CD4+CD40+(Th40) splenic cells were purified from ApoE−/− with cardiovascular disease. The cells were cultured overnight in the absence/presence of varying concentrations of KGYY6 peptide.

[10] = Glucose tolerance and insulin sensitivity after KGYY6; assay type: in vivo, ApoE −/−mice
[11] = 50 and 100 mg/kg IV injection, vs pretest values
[12] = 12.5 mg/kg bolus IV, 1-hour post-treatment

NC(N)=NCCC[C@@H](N)C(=O)N[C@@H](CCCN=C(N)N)C(=O)N1CCC[C@H]1C(=O)N1C[C@H](O)C[C@H]1C(=O)NCC(=O)N[C@@H](Cc1cccs1)C(=O)N[C@@H](CO)C(=O)N1Cc2ccccc2C[C@@H]1C(=O)N1[C@H](C(=O)N[C@@H](CCCN=C(N)N)C(=O)O)C[C@@H]2CCCC[C@@H]21 [icatibant]
infusion reaction [1]: causes a reaction due to histamine release that is quickly reversed after end of infusion

CSCC[C@H](NC(=O)[C@@H](NC(=O)[C@H](Cc1ccc(O)cc1)NC(=O)[C@H](Cc1ccc(O)cc1)NC(=O)CNC(=O)[C@H](CCCCN)NC(=O)[C@H](CCCCN)NC(=O)[C@H](C)NC(=O)[C@H](Cc1c[nH]c2ccccc12)NC(=O)[C@H](CCC(N)=O)NC(=O)[C@H](CC(C)C)NC(=O)[C@@H](N)C(C)C)[C@@H](C)O)C(=O)N[C@@H](CCCCN)C(=O)N[C@@H](CO)C(=O)N[C@@H](CC(N)=O)C(=O)O [OPT101, VLQWAKKGYYTMKSN]
clinical observations or physiological changes ([2]; 0.3 mg/kg): no clinical observations or physiological changes
blood pressure and heart rate ([2]; 100 mg/kg): decreases
time for blood pressure and heart rate to return to normal after end of infusion ([2]; 100 mg/kg): ≤ 1 h
serum levels of histamine ([2]; 100 mg/kg, 5 and 30 minutes after start of infusion): significantly elevated
body weight, food consumption, body temperature, respiratory rate and coagulation ([2]; 0.3, 1 or 100 mg/kg, 30-minute IV infusion, single dose): no OPT101-related body weight, food consumption, body temperature, respiratory rate and coagulation changes
histamine related clinical observations ([2]; 1 and 100 mg/kg, much more severe at 100 mg/kg): salivation, vomitus, incontinence, discolored skin, swelling and rash
no observable effect level (NOEL) ([2]; single dose, 30-minute IV infusion): 0.3 mg/kg
assessment of clinical chemistry effects ([3]; 100 mg/kg): adverse
alanine aminotransferase, aspartate aminotransferase, alkaline phosphatase, γ-glutamyltransferase, urea, creatinine, calcium, phosphorus, total bilirubin, creatine kinase [3, 11]: notable increases
potassium [3, 11]: decrease
serum C5b-9 complement levels ([3]; 50 or 100 mg/kg): no increases
decrease of fibrinogen (down to) ([3]; 50 or 100 mg/kg bolus IV): 32%
increase of prothrombin time ([3]; 50 or 100 mg/kg bolus IV): 288%
leukocyte count, erythrocyte and platelet counts ([3]; 50 or 100 mg/kg bolus IV): increases
tolerability ([3]; 50 or 100 mg/kg bolus IV injection, single dose): not tolerated
histopathology evaluation of liver and kidney ([3]; bolus IV): no liver or kidney lesions
mortality [4]: mortality of two rats
tolerability ([4]; single dose): did not tolerate the treatment
reverse bacterial mutation (Ames assay) (bacterial mutation): negative
serum C3 levels (as measured by conversion to human SC5b-9) [5, 12]: no decreases
serum IFN-γ, TNF-α, IL-10, IL-4, IL-5, IL-6, IL-10, or IL-13 levels [5, 12]: no changes
serum histamine levels ([5]; 12.5 mg/kg bolus IV, 10-minutes post-treatment): increased significantly
clinical observation ([5]; single bolus IV dose 12.5 mg/kg): consistent with a histamine reaction
assessment of infusion reaction clinical signs ([6]; 10 mg/kg): non-adverse
plasma drug levels versus dose ([6]; 8-week study, PK after first and last dose): increased with increasing dose
infusion reactions, incidence ([6]; 10, 100, or 400 mg/kg/dose): in all treated animals
tolerability ([6]; 10, 100, or 400 mg/kg/dose once a week for 8 weeks, 30-minute IV infusion): well tolerated
assessment of infusion reaction clinical signs ([6]; 100 and 400 mg/kg): adverse
NOAEL ([6]; dog, in vivo, dogs, infusion reaction, once weekly for 8 weeks, 30-minute IV infusion, read-out: no observable adverse effect level (NOAEL)): 10 mg/kg
thromboemboli ([6]; dogs, 8-week toxicology study): no evidence of thromboemboli
toxicity other than infusion reaction ([6]; dogs, up to highest dose of 400 mg/kg, once weekly for 8 weeks, 400 mg/kg): no other adverse effects
drug accumulation ([6]; over the 8-week study): no marked drug accumulation
spontaneous platelet aggregation (human platelets; OPT101 at 30 μg/mL): no spontaneous platelet aggregation
Platelet aggregation induced with adenosine diphosphate or collagen (human platelets; OPT101 at 0.1, 0.3, 3 or 30 μg/mL): not affected
tolerability ([7]; 10, 100 or 200 mg/kg/dose once a week for 8 weeks, 30-minute IV infusion): well tolerated and did not result in any adverse effects
NOAEL ([7]; rat, in vivo, rats, once weekly for 8 weeks, 30-minute IV infusion, read-out: no observable adverse effect level (NOAEL)): 200 mg/kg
thromboemboli ([7]; rats, 8-week toxicology study): no evidence of thromboemboli
toxicity other than infusion reaction ([7]; rats, up to highest dose of 200 mg/kg, once weekly for 8 weeks, 200 mg/kg): no other adverse effects
complement activation [8]: no evidence of complement activation
duration of clinical signs and release of histamine [8]: very transient

YKNVKQMAYWLTGKS [scrambled version of OPT101, reference compound]
infusion reactions [8]: also elicited

AKKGYY [KGYY6]
production of TGF (intracellular, Th40 cells) (Th40 cells): decrease production of TGF
intracellular IL-10 in conventional CD4 T cells (conventional CD4 T cells): increase in intracellular IL-10
inflammatory cytokine IFNγ [9]: varying degrees of reduction
inflammatory cytokine IL-2 [9]: varying degrees of reduction
inflammatory cytokine IL-17A [9]: varying degrees of reduction
insulin sensitivity ([10]; p<0.005): statistically significant improvement
glucose tolerance ([10]; p<0.05): statistically significant improvement
